# Data reported in paper PMC7463651, “Phase I/Ib Study of Tenalisib (RP6530), a Dual PI3K δ/γ Inhibitor in Patients with Relapsed/Refractory T-Cell Lymphoma” (Cancers, 2020).
# Several values for one entry are separate records, joined by “and”; a condition that tells them apart may be missing. Equal entries are not always repeated. Entries after “also recorded” stand apart in the source; their conditions may differ.
# How the values were obtained:
# [1] = system: relapsed/refractory PTCL; test: Efficacy assessment (ORR, DoR), PTCL patients; type: in vivo, human; conditions: for Median DoR (95% CI) / ORR (95% CI): PTCL
# Procedure: Efficacy assessments included radiological, bone marrow biopsy/aspiration and skin assessments. In some cases, bone marrow disease alone was used for disease assessment. In these cases, response was reported as CR or non-CR.
# In PTCL patients, radiological assessment was performed at screening, Day 1 of Cycle 3 and 5 and approximately 12 weeks thereafter. Assessments of skin lesions in PTCL patients were performed, if applicable. Bone marrow biopsy/aspirate was performed in patients without measurable but assessable disease at screening and on Day 1 of Cycle 3 and 5, then also approximately 12 weeks thereafter to confirm a CR.
# The efficacy parameters included ORR and DoR. Revised Response Criteria for Malignant Lymphoma (Cheson 2007) was used for evaluation of PTCL [21]. International Society for Cutaneous Lymphomas Response Criteria for Mycosis Fungoides and Sezary Syndrome (SS) and Cutaneous Lymphoma Task Force of the European Organization for Research and Treatment of Cancer criteria were used for evaluation of CTCL patients. For skin scoring, the modified Severity Weighted Assessment Tool was used. For local index lesion skin scoring, the Composite Assessment of Index Lesion Severity was used.
# [2] = system: T-cell leukemia xenograft; design: method as in ref 18 = [18]; 18. Mao G. Viswanadha S. Rhizen, Switzerland Unpublished work 2013; conditions: cited from earlier work
# [3] = system: CD30, IL-31 and IL-32α; test: Correlative biomarker analysis in plasma; type: in vivo, human
# Procedure: Assessment of CD30 and soluble IL-2 receptor (sIL-2R) for PTCL and cutaneous T-cell attracting chemokine (CTACK), IL-31 and IL-32α for CTCL were performed in plasma at screening, pre-dose and after 1 h on Day 1 of Cycle 3, at EOT and/or to confirm a response.
# [4] = Dose Escalation 800 mg Fasting, N = 1
# [5] = Dose Expansion 800 mg Fasting, N = 10
# [6] = CTCL group, Cycle 3 Day 1 compared to baseline, correlated with responses
smiles,measurement,setting,value
CC[C@H](Nc1ncnc2[nH]cnc12)c1oc2ccccc2c(=O)c1-c1cccc(F)c1 [Tenalisib],Partial response (PR),[1]; PTCL patients,4 (26.7%) n (%)
same,Complete response (CR),"[1]; PTCL patients, three patients",20%
same,Median DoR (95% CI),"[1]; Cumulative Total, N = 15","6.5 months and 6.5 (2.9, 14.9) months"
same,ORR (95% CI),"[1]; Cumulative Total, N = 15","46.7% and 46.7 (21.3, 73.4) %"
same,Median DoR (95% CI),"[1]; Dose Escalation 200 mg, N = 2","4.9 (-,-) months"
same,ORR (95% CI),"[1]; Dose Escalation 200 mg, N = 2","50.0 (1.3, 98.7) %"
same,Median DoR (95% CI),"[1]; Dose Escalation 400 mg, N = 1","0.97 (-,-) months"
same,ORR (95% CI),"[1]; Dose Escalation 400 mg, N = 1","100.0 (2.5, 100.0) %"
same,Median DoR (95% CI),[1]; [4],"19.5 (-,-) months"
same,ORR (95% CI),[1]; [4],"100.0 (2.5, 100.0) %"
same,ORR (95% CI),"[1]; Dose Escalation 800 mg Fed, N = 1","0.0 (0.0, 97.5) %"
same,Median DoR (95% CI),"[1]; Dose Escalation Total, N = 5","4.9 (0.0, 19.5) months"
same,ORR (95% CI),"[1]; Dose Escalation Total, N = 5","60.0 (14.7, 94.7) %"
same,Median DoR (95% CI),[1]; [5],"7.0 (1.2, 17.3) months"
same,ORR (95% CI),[1]; [5],"40.0 (12.2, 73.8) %"
same,Median DoR,[1]; three PTCL patients who achieved CR,13.3 months
same,Efficacy in xenograft model,[2],demonstrated efficacy
same,Plasma IL-31 levels,[3]; [6],marked downregulation; also recorded: reductions
same,Plasma IL-32α levels,[3]; [6],marked downregulation; also recorded: reductions
same,Plasma CD30 levels,"[3]; PTCL patients, baseline to Cycle 3 Day 1, correlated with response",marked downregulation; also recorded: decrease in CD30 levels
